For seven cell lines, relative viability results are on record in the supplement of paper PMC10307832.

Compound in test [1]: CCOC(=O)CCNc1cc(N2CCc3ccccc3CC2)nc(-c2ccccn2)n1 [GSK-J4] + CC1(C)CCC(c2ccc(Cl)cc2)=C(CN2CCN(c3ccc(C(=O)NS(=O)(=O)c4ccc(N[C@H](CCN5CCOCC5)CSc5ccccc5)c(S(=O)(=O)C(F)(F)F)c4)cc3)CC2)C1 [Navitoclax] (partner 0.5 µM)
The test can be described thus: relative viability (nuclei count vs DMSO), 5 days (fraction); higher = more cells survive. The method in brief: (§1)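 The day after seeding in 1536-well plates, lung cancer cell lines were treated by pin tool with a single drug, or with a fixed anchor-drug dose together with five library-drug doses (not always all listed) in √10 steps. After 5 days, a combined fix-and-stain solution (final 0.05% Triton X-100, 1% formaldehyde, 1 ug/ml Hoechst) was added. Nuclei counted on 4× images gave relative viability as treated counts over vehicle counts, reported as the median of duplicate plates.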

Compound in test [2]: CN1CCC(CC1)OC2=CC(=C(C=C2)NC3=NC=C4C(=N3)N(C(=O)N4C)C5CCCC5)OC [AZ3146] + COc1cc2c(Oc3ccc(NC(=O)C4(C(=O)Nc5ccc(F)cc5)CC4)cc3F)ccnc2cc1OCCCN1CCOCC1 [Foretinib] (partner 0.25 µM)
The test is described as above. The essentials:
as §1

As to NCI-H322M, the relative viability in test [1] (first compound 0.5 µM) was 1.18; in test [1] (first compound 1.581 µM), 1.18; in test [1] (first compound 5 µM), 1.29; in test [1] (first compound 15.81 µM), 1.05; in test [1] (first compound 50 µM) it was 1.17; in test [2] (first compound 0.08 µM) it was 0.893. Further, the relative viability in test [2] (first compound 0.253 µM) amounted to 0.943; in test [2] (first compound 0.8 µM) it was 0.837; in test [2] (first compound 2.53 µM), 0.738; in test [2] (first compound 8 µM) it was 0.642.

In the case of NCI-H460, the relative viability was 1.02 in test [1] (first compound 0.5 µM); 0.984 in test [1] (first compound 1.581 µM); 1.09 in test [1] (first compound 5 µM); 1.22 in test [1] (first compound 15.81 µM); 0.994 in test [1] (first compound 50 µM); 1.01 in test [2] (first compound 0.08 µM). Further, the relative viability in test [2] (first compound 0.253 µM) came to 1.06; in test [2] (first compound 0.8 µM), 0.92; in test [2] (first compound 2.53 µM) it was 0.874; in test [2] (first compound 8 µM), 0.312.

As to NCI-H1395, the relative viability came to 1.31 in test [1] (first compound 0.5 µM); 1.08 in test [1] (first compound 1.581 µM); 0.896 in test [1] (first compound 5 µM); 1.05 in test [1] (first compound 15.81 µM); 0.898 in test [1] (first compound 50 µM); 0.989 in test [2] (first compound 0.08 µM). Besides, the relative viability in test [2] (first compound 0.253 µM) was found to be 0.962; in test [2] (first compound 0.8 µM) it was 0.949; in test [2] (first compound 2.53 µM), 1.07; in test [2] (first compound 8 µM), 1.02.

On to SK-MES-1, for which the relative viability in test [1] (first compound 0.5 µM) amounted to 1.13; in test [1] (first compound 1.581 µM) it was 1.03; in test [1] (first compound 5 µM), 1.25; in test [1] (first compound 15.81 µM) it was 1.01; in test [1] (first compound 50 µM) it was 0.857; in test [2] (first compound 0.08 µM), 0.979. For the same cell line, the relative viability was 0.832 in test [2] (first compound 0.253 µM), 0.974 in test [2] (first compound 0.8 µM), 1 in test [2] (first compound 2.53 µM) and 0.957 in test [2] (first compound 8 µM).

On to PC-3 [JPC-3], for which the relative viability worked out at 0.77 in test [1] (first compound 0.5 µM); 0.742 in test [1] (first compound 1.581 µM); 0.787 in test [1] (first compound 5 µM); 0.743 in test [1] (first compound 15.81 µM); 0.753 in test [1] (first compound 50 µM); 0.927 in test [2] (first compound 0.08 µM). For the same cell line, the relative viability stood at 1.02 in test [2] (first compound 0.253 µM), 1.03 in test [2] (first compound 0.8 µM), 1.14 in test [2] (first compound 2.53 µM) and 0.966 in test [2] (first compound 8 µM).

As for COR-L 105, the relative viability in test [1] (first compound 0.5 µM) was found to be 0.692; in test [1] (first compound 1.581 µM), 0.551; in test [1] (first compound 5 µM) it was 0.647; in test [1] (first compound 15.81 µM) it was 0.88; in test [1] (first compound 50 µM), 0.679; in test [2] (first compound 0.08 µM) it was 1.11. Further, the relative viability was determined as 1.04 in test [2] (first compound 0.253 µM), 0.857 in test [2] (first compound 0.8 µM), 0.687 in test [2] (first compound 2.53 µM) and 0.455 in test [2] (first compound 8 µM).

With EKVX, the relative viability in test [1] (first compound 0.5 µM) turned out to be 0.871; in test [1] (first compound 1.581 µM), 0.874; in test [1] (first compound 5 µM), 1.12; in test [1] (first compound 15.81 µM) it was 0.834; in test [1] (first compound 50 µM), 0.951; in test [2] (first compound 0.08 µM), 0.798. The relative viability in test [2] (first compound 0.253 µM) worked out at 0.753; in test [2] (first compound 0.8 µM), 0.735; in test [2] (first compound 2.53 µM), 0.869; in test [2] (first compound 8 µM) it was 0.788.
